According to ChEMBL document CHEMBL1125586, “Novel thiophene-, pyrrole-, furan-, and benzenecarboxamidotetrazoles as potential antiallergy agents” (J Med Chem, 1991):
≈ marks a conversion by molar mass, not a printed value.

What was measured:
Homo sapiens [1] = organism: Homo sapiens; experiment: cells
Description: Percent inhibition of histamine release from human basophils at a concentration of 33 uM.

physchem [2] = details: buffer, pH 7.4
Description: Solubility was determined at pH 7.4

Homo sapiens [3] = organism: Homo sapiens; experiment: cells; remark: listed apart in the source
Description: Compound was tested for the concentration to inhibit 50% of anti-IgE-stimulated histamine release from human basophils.

physchem [4] = details: buffer, pH 7.4; remark: listed apart in the source
Description: Log P value was determined at pH 7.4 using correlation (HPLC) method.

Homo sapiens [5] = organism: Homo sapiens; experiment: cells; remark: listed apart in the source
Description: Percent inhibition of histamine release from human basophils at a concentration of 10 uM.

Row | solubility (physchem [2]) [µg/mL] | IC50 (Homo sapiens [3]) [µM] | chromatographic logD (physchem [4]) | Compound | inhibition at 33 µM (Homo sapiens [1]) [%] | inhibition at 10 µM (Homo sapiens [5]) [%]
1 | 1840 (≈ 5.52 mM) | 1.1 | 1.78 | COc1ccc2sc(C(=O)Nc3nnn[nH]3)c(OC(C)C)c2c1 | 97 | 95
2 | 1900 (≈ 5.25 mM) | 2 | 1.35 | COc1sc(C(=O)Nc2nn[nH]n2)c(OC(C)C)c1Br | 95 | 92
3 |  | 5 |  | Cc1sc(C(=O)Nc2nn[nH]n2)c(SC(C)C)c1Br | 90 | 74
4 |  | 5 |  | CCOc1c(C(=O)Nc2nn[nH]n2)sc(C)c1Br | 100 | 77
5 |  |  |  | CC(C)Oc1c(C(=O)Nc2nn[nH]n2)sc(C(C)C)c1Br | < 25 | < 25
6 | 1900 (≈ 4.66 mM) | 25 | 2.52 | CC(C)Oc1c(Br)c(Br)n(C)c1C(=O)Nc1nn[nH]n1 | 69 | 37
7 |  | 8 |  | Cc1sc(C(=O)Nc2nn[nH]n2)c(OC(C)C)c1Cl | 88 | 55
8 | 3300 (≈ 9.53 mM) | 2 | 1.72 | Cc1sc(C(=O)Nc2nn[nH]n2)c(OC(C)C)c1Br | 97 | 85
9 |  | 5 |  | Cc1sc(C(=O)Nc2nn[nH]n2)c(OCc2ccccc2)c1Br | 91 | 68
10 | 70 (≈ 0.178 mM) |  | 2.66 | COc1ccc2c(c1)c(OC(C)C)c(C(=O)Nc1nn[nH]n1)n2-c1ccccc1 | 82 | 46
11 | < 1 | 8.5 | 2.8 | COc1ccc2c(c1)c1oc(C(=O)Nc3nn[nH]n3)c(OC)c1n2-c1ccccc1 | 91 | 66
12 |  |  |  | COc1c(Br)cc(C(=O)Nc2nn[nH]n2)c(OC(C)C)c1Br | 28 | < 25
13 |  |  |  | CC(C)Oc1c(Br)c(Br)n(Cc2ccccc2)c1C(=O)Nc1nn[nH]n1 | < 25 | < 25
14 |  |  |  | CC(C)Oc1c(C(=O)Nc2nn[nH]n2)[nH]c(Br)c1Br | < 25 | < 25
15 |  |  |  | CC(C)Oc1c(Br)c(Br)n(-c2ccccc2)c1C(=O)Nc1nn[nH]n1 | < 25 | < 25
16 |  |  |  | Cc1cc(OC(C)C)c(C(=O)Nc2nn[nH]n2)s1 | < 25 | < 25
17 |  |  |  | Cc1sc(C(=O)Nc2nn[nH]n2)c(OC(C)C)c1OC(C)C | < 25 | < 25
18 |  |  |  | COc1ccc(C(=O)Nc2nn[nH]n2)c(OC(C)C)c1[Si](C)(C)C | < 25 | < 25
19 |  |  |  | COc1ccc(C(=O)Nc2nn[nH]n2)c(OC(C)C)c1Br | 60 | < 25
20 |  |  |  | CC(C)Oc1c(Br)csc1C(=O)Nc1nn[nH]n1 | 47 | 30
21 |  |  |  | CC(C)Oc1c(C(=O)Nc2nn[nH]n2)sc(-c2ccccc2)c1Br | < 25 | < 25
22 |  |  |  | COc1ccc(C(=O)Nc2nn[nH]n2)c(OC(C)C)c1 | 41 | < 25
23 |  |  |  | CC(C)Sc1c(C(=O)Nc2nn[nH]n2)oc(Br)c1Br | < 25 | < 25
24 |  | 10 | 1.17 | COc1ccc(C(=O)Nc2nn[nH]n2)c(OC(C)C)c1I | 73 | 51
25 |  |  |  | Cc1sc(C(=O)Nc2nn[nH]n2)c(OC(C)C)c1C | < 25 | < 25
26 |  |  |  | Cc1sc(C(=O)Nc2nn[nH]n2)c(OC(C)C)c1C(C)C | < 25 | < 25
27 |  |  |  | COc1c(C(=O)Nc2nn[nH]n2)sc(C)c1Br | 53 | < 25
28 |  |  |  | CCCc1c2oc(C(=O)O)cc(=O)c2cc2c(=O)cc(C(=O)O)n(CC)c12 [NEDOCROMIL] | < 25 | < 25
